Reference: patent US8822495B2, “Azacyclyl-substituted aryldihydroisoquinolinones, process for their preparation and their use as medicaments” (Sanofi, priority 2006, dated 2014)

Target: T1, human MCH receptor (Homo sapiens, UniProt Q99705)
T1 construct: expressed in transfected cells
Experiment: functional IC50 of MCH1R antagonists: cellular calcium flux (FLIPR), called calcium immobilization assay
Type: cell-based
Details: calcium flux after addition of agonist (MCH), recombinant HEK293 cell line expressing the human MCH receptor
Text: Influence on the MCH receptor in vitro; determination of functional IC50 values of MCH1R antagonists
Cloning of the cDNA for the human MCH receptor, preparation of a recombinant HEK293 cell line which expresses the human MCH receptor, and functional measurements with the recombinant cell line took place in analogy to the description by Audinot et al. (J. Biol. Chem. 276, 13554-13562, 2001). A difference from the reference was, however, the use of the plasmid pEAK8 from EDGE Biosystems (USA) for the construction of the expression vector. The host used for the transfection was a transformed HEK cell line named “PEAK Stable Cells” (likewise from EDGE Biosystems). Functional measurements of the cellular calcium flux after addition of agonist (MCH) in the presence of ligand of the invention took place with the aid of the FLIPR apparatus from Molecular Devices (USA), using protocols of the apparatus manufacturer. The compounds of the invention show a significant inhibition (>30%) of the signal induced by the agonist at a concentration of 100 μM, preferably at 10 μM, particularly preferably at 1 μM, very particularly preferably at 100 nM and even more particularly preferably at 10 nM.

T1 sequence (Q99705 whole entry): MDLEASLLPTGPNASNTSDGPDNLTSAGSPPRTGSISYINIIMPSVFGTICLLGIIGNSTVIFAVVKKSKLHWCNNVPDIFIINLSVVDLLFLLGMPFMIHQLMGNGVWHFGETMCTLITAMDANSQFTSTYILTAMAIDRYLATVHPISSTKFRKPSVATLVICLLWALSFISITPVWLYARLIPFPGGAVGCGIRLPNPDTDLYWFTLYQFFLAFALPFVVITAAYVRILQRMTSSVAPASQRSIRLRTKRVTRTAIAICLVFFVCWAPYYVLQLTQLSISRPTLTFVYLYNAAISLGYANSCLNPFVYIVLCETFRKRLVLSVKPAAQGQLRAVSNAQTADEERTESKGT

| Structure (SMILES) | IC50 [nM] |
| --- | --- |
| CO[C@@H]1CN(c2ccc(-n3ccc4cc(OC[C@H]5CCCO5)ccc4c3=O)cc2F)C[C@H]1N(C)C (relative stereo) [Example 353, 2-[4-((3R*,4R*)-3-Dimethylamino-4-methoxy-pyrrolidin-1-yl)-3-fluorophenyl]-6-[(R)-1-(tetrahydrofuran-2-yl)methoxy]-2H-isoquinolin-1-one] | 23800 |
| CCCCOc1ccc2c(c1)CCN(c1ccc(N3CCC(N(C)C)C3)c(Cl)c1)C2=O (stereo not drawn) [Example 1, 6-Butoxy-2-[3-chloro-4-(3-dimethylaminopyrrolidin-1-yl)phenyl]-3,4-dihydro-2H-isoquinolin-1-one] | 990 |
| CCCCOc1ccc2c(c1)CCN(c1ccc(N3CC[C@@H](N(C)CCS(C)(=O)=O)C3)c(F)c1)C2=O [Example 14, 6-Butoxy-2-(3-fluoro-4-{(R)-3-[(2-methanesulfonylethyl)methylamino]pyrrolidin-1-yl}phenyl)-3,4-dihydro-2H-isoquinolin-1-one] | 1070 |
| CC1CCN(c2ccc3c(c2)CCN(c2ccc(N4CC[C@@H](N(C)C)C4)c(F)c2)C3=O)CC1 [Example 24, 2-[4-((R)-3-Dimethylaminopyrrolidin-1-yl)-3-fluorophenyl]-6-(4-methylpiperidin-1-yl)-3,4-dihydro-2H-isoquinolin-1-one] | 1190 |
| CCCCOc1ccc2c(c1)CCN(c1ccc(N3CCC(N4CCN(C(C)=O)CC4)C3)cc1)C2=O (stereo not drawn) [Example 39, 2-{4-[3-(4-Acetylpiperazin-1-yl)pyrrolidin-1-yl]phenyl}-6-butoxy-3,4-dihydro-2H-isoquinolin-1-one] | 230 |
| CCCCOc1ccc2c(c1)CCN(c1ccc(N3CCC(NCCCN4CCCC4=O)C3)cc1)C2=O (stereo not drawn) [Example 45] | 220 |
| CN[C@@H]1CCN(c2ccc(N3CCc4cc(OC5CC(C)OC5=O)ccc4C3=O)cc2F)C1 (stereo partly drawn) [Example 84] | 6240 |
| CC(C)C(=O)Nc1ccc2c(c1)CCN(c1ccc(N3CC[C@@H](N(C)C)C3)c(F)c1)C2=O [Example 95] | 3410 |
| CN(C)[C@@H]1CCN(c2ccc(N3CCc4cc(N5C[C@H]6CCCN6C5=O)ccc4C3=O)cc2F)C1 [Example 99] | 1680 |
| CC(O)CCNc1ccc2c(c1)CCN(c1ccc(N3CC[C@@H](N(C)C)C3)c(F)c1)C2=O (stereo partly drawn) [Example 106] | 4210 |
| CC1=C(C)C(=O)N(c2ccc3c(c2)CCN(c2ccc(N4CC[C@@H](N(C)C)C4)c(F)c2)C3=O)C1 [Example 112] | 7540 |
| CC[C@H](O)COc1ccc2c(c1)CCN(c1ccc(N3CC[C@]4(CCN(CCCF)C4)C3)cc1)C2=O [Example 176] | 310 |
| CC(C)(O)CN1CC[C@]2(CCN(c3ccc(N4CCc5cc(OC[C@@H]6CCCO6)ccc5C4=O)cc3)C2)C1 [Example 206] | 200 |
| O=c1c2ccc(OCCCF)cc2ccn1-c1ccc(N2CC[C@]3(CCN(CCCF)C3)C2)cc1 [Example 210] | 360 |
| CN(C)[C@@H]1CCN(c2ccc(N3CCc4cc(OC5CCC(O)C5)ccc4C3=O)cc2F)C1 (stereo partly drawn) [Example 219] | 1460 |
| CN(C)[C@@H]1CCN(c2ccc(N3CCc4cc(OCC5(C)COC5)ccc4C3=O)cc2F)C1 [Example 224] | 1420 |
| O=C1c2ccc(OC[C@@H]3CCCO3)cc2CCN1c1ccc(N2CCC(N3CC4CCC4C3)C2)c(F)c1 (stereo partly drawn) [Example 264] | 590 |
| CC[C@H](O)COc1ccc2c(c1)CCN(c1ccc(N3CCC4CN(C)CC43)cc1)C2=O (stereo partly drawn) [Example 287] | 1960 |
| CN1C[C@H]2CCN(c3ccc(-n4ccc5cc(OC[C@@H]6CCCO6)ccc5c4=O)cc3)[C@H]2C1 [Example 324] | 200 |
| COc1cc(-n2ccc3cc(OC[C@@H]4CCCO4)ccc3c2=O)ccc1N1CCCN(C)CC1 [Example 326] | 220 |
| CC(=O)N(C)C1CCCN(c2ccc(-n3ccc4cc(OC[C@@H]5CCCO5)ccc4c3=O)cc2)C1 (stereo partly drawn) [Example 327] | 3690 |
| O=c1c2ccc(OC[C@H]3CCCO3)cc2ccn1-c1ccc(N2CCC3(CNCCO3)C2)c(F)c1 (stereo partly drawn) [Example 341] | 1600 |
| CN(C)[C@@H]1CCN(c2ccc(N3CCc4cc(C#CC(C)(C)O)sc4C3=O)cc2)C1 [Example 361] | 2560 |

Continued, values first:

| IC50 [nM] | Structure (SMILES) |
| --- | --- |
| 100 | C[C@@H](O)C#Cc1ccc2c(=O)n(-c3ccc(N4CC[C@@H](N5CCCC5)C4)c(F)c3)ccc2c1 [Example 136] |
| 180 | O=c1c2ccc(OCC(O)C(F)(F)F)cc2ccn1-c1ccc(N2CC[C@@H](N3CCCC3)C2)c(F)c1 (stereo partly drawn) [Example 154] |
| 1390 | CC1(O)CCCC1Oc1ccc2c(=O)n(-c3ccc(N4CC[C@@H](N5CCCC5)C4)c(F)c3)ccc2c1 (stereo partly drawn) [Example 168] |
| 500 | CC1CCOC1COc1ccc2c(=O)n(-c3ccc(N4CC[C@@H](N5CCCC5)C4)c(F)c3)ccc2c1 (stereo partly drawn) [Example 202] |
| 13000 | O=C1CCCN1CCOc1ccc2c(=O)n(-c3ccc(N4CC[C@@H](N5CCCC5)C4)c(F)c3)ccc2c1 [Example 246] |
| 410 | CC(O)CCOc1ccc2c(=O)n(-c3ccc(N4CC[C@@H](N5CCCC5)C4)c(F)c3)ccc2c1 (stereo partly drawn) [Example 251] |
| 380 | COCCCNC1CCN(c2ccc(-n3ccc4cc(OC[C@H]5CCCO5)ccc4c3=O)cc2F)C1 (stereo partly drawn) [Example 303] |
| 150 | CC1(O)CCN(C2CCN(c3ccc(-n4ccc5cc(OC[C@H]6CCCO6)ccc5c4=O)cc3F)C2)CC1 (stereo partly drawn) [Example 321] |
| 220 | CN1CC2(CCN(c3ccc(-n4ccc5cc(OC[C@H]6CCCO6)ccc5c4=O)cc3F)C2)C1 [Example 354] |
| 1140 | CN(C)C1(C)CCN(c2ccc(-n3ccc4cc(OC[C@H]5CCCO5)ccc4c3=O)cc2F)C1 (stereo partly drawn) [Example 356, 2-[4-(3-Dimethylamino-3-methyl-pyrrolidin-1-yl)-3-fluorophenyl]-6-[(R)-1-(tetrahydrofuran-2-yl)methoxy]-2H-isoquinolin-1-one] |
